Source: patent US9428431B2, “Compositions comprising CB receptor agonists, uses thereof and methods for their preparation” (Yissum Research Development Company of the Hebrew …, priority 2008, dated 2016)
Where two headings read alike, the source gives them in different places.

Tests used:
CB1 receptor [1] = molecular target: T1, CB1 receptor (Rattus norvegicus, UniProt P20272); test: CB1 receptor binding, [3H]HU-243 displacement, synaptosomal membranes; set-up: species or system Sabra rats
T1 construct: synaptosomal membranes were prepared from the brains of Sabra rats by homogenization and gradient centrifugation; from tissue; host or cells: brain of Sabra rats, synaptosomal membranes
T1 sequence (P20272 whole entry): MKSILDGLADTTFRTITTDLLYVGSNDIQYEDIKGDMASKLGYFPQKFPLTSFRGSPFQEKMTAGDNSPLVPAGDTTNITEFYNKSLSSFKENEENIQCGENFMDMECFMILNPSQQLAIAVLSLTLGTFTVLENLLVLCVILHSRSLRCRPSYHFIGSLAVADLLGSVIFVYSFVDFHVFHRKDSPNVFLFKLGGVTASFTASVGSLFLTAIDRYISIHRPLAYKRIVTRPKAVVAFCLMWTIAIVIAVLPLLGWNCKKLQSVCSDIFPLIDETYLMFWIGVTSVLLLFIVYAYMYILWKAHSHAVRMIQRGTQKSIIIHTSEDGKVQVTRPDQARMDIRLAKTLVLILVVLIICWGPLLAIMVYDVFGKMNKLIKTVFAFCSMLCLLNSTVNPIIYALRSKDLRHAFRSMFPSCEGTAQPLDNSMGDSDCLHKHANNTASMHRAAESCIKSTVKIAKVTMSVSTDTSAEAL
Experimental: For CB1 receptor binding, synaptosomal membranes were prepared from the brains of Sabra rats by homogenization and gradient centrifugation (Devane et al, 1992). For CB2 receptor binding assay, COS-7 cells were transfected with plasmids containing CB2 cDNA, and crude membranes were prepared (Munro et al, 1993).
Bound and free radioligands were separated by centrifugation. The data were normalized to 100% of specific binding, which was determined with 50 nM unlabeled HU-243.

OVX mouse model = test: Rescue of ovariectomy (OVX)-induced trabecular bone loss, μCT of L3 vertebrae; type: in vivo
Excerpt: Data are mean±S.E. obtained in 6 mice per condition. (*) p<0.05.
Using this experimental system for testing bone anabolic activity, OVXed mice are left untreated to allow for bone loss to occur, followed by a treatment period intended for reversal of the bone loss (Alexander et al, 2001).

[2] = tested on: Osteoblastic MC3T3 E1 cells; test: Stimulation of MC3T3 E1 osteoblastic cell number; type: cell-based; conditions: for ligand concentration that doubled cell number: MC3T3 E1 cells, last 46 hours in culture, DMSO solution
Experimental: Osteoblastic MC3T3 E1 cells were cultured as reported in Miguel et al, 2005. […] Control cultures were treated only with the DMSO solvent (Ofek et al, 2006).

CB1 receptor [3] = molecular target: T1, CB1 receptor; conditions: cited from earlier work
CB2 receptor = molecular target: T2, CB2 receptor (Homo sapiens, UniProt P34972); conditions: Hanus et al.; cited from earlier work
T2 construct: expressed in transfected cells; host or cells: COS-7 cells
T2 sequence (P34972 whole entry): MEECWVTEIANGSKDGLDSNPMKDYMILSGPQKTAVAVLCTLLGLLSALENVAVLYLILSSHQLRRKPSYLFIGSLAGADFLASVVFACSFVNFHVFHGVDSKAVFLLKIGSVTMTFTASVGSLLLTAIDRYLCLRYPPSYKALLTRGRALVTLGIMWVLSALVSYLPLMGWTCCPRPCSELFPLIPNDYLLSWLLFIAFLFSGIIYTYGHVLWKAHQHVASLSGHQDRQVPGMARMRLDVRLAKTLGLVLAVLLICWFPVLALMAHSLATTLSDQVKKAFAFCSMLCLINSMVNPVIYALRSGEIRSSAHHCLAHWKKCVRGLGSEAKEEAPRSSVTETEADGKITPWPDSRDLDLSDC

[4] = tested on: osteoblastogenesis / osteoclastogenesis; conditions: cited from earlier work
mice = conditions: cited from earlier work

## CCCCCCC(C)(C)c1cc(OC)c([C@@H]2C=C(CO)C3CC2C3(C)C)c(OC)c1 (single isomer, unassigned; (-)) [HU-433, (−)-2-(3-myrtenyl)-5-dimethylheptyl resorcinol]
CB1 receptor [1]
  Ki: > 20 µM
CB1 receptor [1]; present example
  binding to CB1 receptor: did not bind to CB1 receptor
OVX mouse model; 0.2 mg/Kg/day intraperitoneal for 6 weeks, starting 6 weeks after OVX, L3 vertebrae μCT
  rescue of OVX-induced trabecular bone loss: significantly rescued almost the entire OVX-induced trabecular bone loss
OVX mouse model; comparison with Alexander et al, 2001
  effect compared with reversal of bone volumetric density by parathyroid hormone (1-34): substantially greater
[2]; MC3T3 E1 cell number assay
  in vitro skeletal activity compared to HU-308: 1000 fold
[2]
  ligand concentration that doubled cell number: 10^−11 M

## CCCCCCC(C)(C)c1cc(O)c2c(c1)OC(C)(C)[C@@H]1CC[C@@H](CO)C[C@@H]21 [[^3H]HU-243]
CB1 receptor [3]; radioligand probe, read-out: dissociation constant for the CB1 receptor
  Kd: 0.045 ± 0.007 nM

## CCCCCCC(C)(C)c1cc(OC)c([C@@H]2C=C(CO)[C@@H]3C[C@H]2C3(C)C)c(OC)c1 [HU-308]
CB2 receptor
  binding to CB2 receptor: potent binding to CB2 receptor
[4]
  in vitro osteoblastogenesis: stimulates
  in vitro osteoclastogenesis: inhibits
mice; another mouse model, Bab et al, 2008
  OVX-induced bone loss: rescues
mice; mice, Ofek et al, 2006
  bone formation: stimulates bone formation
  bone resorption: inhibits bone resorption
  ovariectomy (OVX)-induced bone loss: attenuating
OVX mouse model; 20 mg/Kg/day intraperitoneal for 6 weeks, starting 6 weeks after OVX, L3 vertebrae μCT
  reversal of OVX-induced trabecular bone loss: 50%
CB1 receptor [3]; Hanus et al.
  binding to CB1 receptor: did not bind to CB1 receptor
CB1 receptor [3]; read-out: Ki CB1, HU-308, from Hanus et al, 1999
  Ki: > 10 µM
[2]
  ligand concentration that doubled cell number: 10^−8 M
